Where “and” joins values, the source holds several entries; their conditions need not be identical. Equal values may be shown once.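 Method: 48-hour compound exposure of cells in 96-well plates, five concentrations, linear interpolation of endpoints. GI50: concentration for 50% inhibition of growth. At the TGI there is no net growth.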
Legend:
Test in all cases: NCI tumour cell line growth inhibition, 48 h
MDA-N = tested on: MDA-N
DLD-1 colon = tested on: DLD-1 colon
DMS 114 small cell lung = tested on: DMS 114 small cell lung
DMS 273 small cell lung = tested on: DMS 273 small cell lung
KM20L2 colon = tested on: KM20L2 colon
M19-MEL melanoma = tested on: M19-MEL melanoma
RXF-631 renal = tested on: RXF-631 renal
SNB-78 CNS = tested on: SNB-78 CNS
P388 leukemia = tested on: P388 leukemia
SN12K1 renal = tested on: SN12K1 renal
XF 498 CNS = tested on: XF 498 CNS

Structure (SMILES)	TGI (DLD-1 colon)	TGI (DMS 114 small cell lung)	TGI (DMS 273 small cell lung)	TGI (KM20L2 colon)	TGI (M19-MEL melanoma)	TGI (RXF-631 renal) [µM]	TGI (SNB-78 CNS) [µM]	TGI (MDA-N) [µM]	TGI (XF 498 CNS)	other results
C=C(Cl)[C@@](Cl)(CBr)CC[C@@H](Br)C(C)(C)Cl										GI50 (MDA-N): 1.69 µM
COC(=O)c1sc(=NC(=S)N2CCCCC2)sc1C(=O)OC	> 100 µM	> 100 µM	> 100 µM	> 100 µM	> 100 µM	> 100	> 100			
O=NN(CCCl)C(=O)NC1CCCCC1	39.2 µM and 98.6 µM and 86.2 µM	38.8 µM and 112 µM and 183 µM	65.1 µM and 124 µM and 170 µM	96.9 µM and 144 µM and 350 µM	81.5 µM and 123 µM and 163 µM	132		134	36.4 µM and 128 µM and 114 µM	GI50 (DLD-1 colon): 18.4 µM and 42.2 µM; GI50 (DMS 114 small cell lung): 20.7 µM and 70.3 µM; GI50 (DMS 273 small cell lung): 28.2 µM and 76.7 µM; GI50 (KM20L2 colon): 34.3 µM and 163 µM; GI50 (M19-MEL melanoma): 27.4 µM and 60.2 µM; TGI (P388 leukemia): 34.4 µM; GI50 (RXF-631 renal): 25 µM; TGI (SN12K1 renal): 101 µM; GI50 (XF 498 CNS): 18 µM and 82 µM
Nc1ccc(C(=O)/C=C/c2ccccc2O)cc1	> 100 µM			> 100 µM	> 100 µM	> 100	> 100		> 100 µM	
CN(C)c1ccc(O[Si](Oc2ccc(N(C)C)cc2)(Oc2ccc(N(C)C)cc2)Oc2ccc(N(C)C)cc2)cc1	> 100 µM	> 100 µM		> 100 µM	> 100 µM				> 100 µM	
Cc1ccc(C2=C(Cl)C(=O)C(c3ccc(C)cc3)=C(Cl)C2=O)cc1								> 100		
CN(C)c1ccc(N=C2C=CC(=C(C#N)C#N)c3ccccc32)cc1	16.1 µM	0.666 µM	12.6 µM		5.8 µM		16.7	0.441	1.65 µM	
CCOc1ccccc1NC(=O)C1=C(C)NC(C)=C(C(=O)Nc2ccccc2OCC)C1c1ccc([N+](=O)[O-])cc1	> 100 µM	> 100 µM	> 100 µM	> 100 µM	> 100 µM	> 100	> 100			
O=C(Oc1ccc2c(c1)CN(Cc1ccccc1)CO2)c1ccccc1								30.7		
CN(C)c1ccc(C2CC(C)(O)Oc3cc4c(cc32)OCO4)cc1 (centres undefined)								> 100		
Nc1nc(=S)[nH]c(C(=O)Nc2nccs2)c1-c1ccccc1	> 100 µM	> 100 µM	> 100 µM	> 100 µM	> 100 µM		> 100		> 100 µM	
c1ccc2c3c([nH]c2c1)C1C2CCCCN2C(c2ccncc2)N1CC3 (centres undefined)		83.5 µM	> 100 µM	67.1 µM	> 100 µM		> 100		98 µM	
COc1cc(CCc2ccc(OC(C)=O)cc2)cc(OC)c1OC	> 100 µM	> 100 µM	> 100 µM	> 100 µM	> 100 µM		> 100			
Cc1ccc(S(=O)(=O)N2CCC(C(=O)O)(c3ccccc3)CC2)cc1								> 100		
CC(=O)OCC1OC(n2c(=S)n(-c3ccccc3)c(=O)c3cc(Br)cc(Br)c32)C(OC(C)=O)C(OC(C)=O)C1OC(C)=O (centres undefined)	> 100 µM	> 100 µM	> 100 µM	> 100 µM	> 100 µM		> 100		69.7 µM and > 100 µM	GI50 (XF 498 CNS): 17.2 µM and 49.1 µM
NNC(=O)N/N=C1\CN(c2ccc(Cl)cc2Cl)C(=O)C(=O)C1c1nc2ccccc2o1 (centres undefined)	> 100 µM	> 100 µM	> 100 µM	> 100 µM	> 100 µM	> 100	> 100		> 100 µM	

Source: PubChem BioAssay (NCI)
